These results are taken from patent US20120003668A1, “HIGH RESOLUTION COMPLEX STRUCTURE AND ALLOSTERIC EFFECTS OF LOW MOLECULAR WEIGHT ACTIVATORS ON THE PROTEIN KINASE PDK1” (UNIVERSITAET DES SAARLANDES, priority 2008, published 2012).

Entries after “also recorded” stand apart in the source; their conditions may differ.

In experiment [1] the target is T1, PDK1 50-359 [Y288G;Q292A] (Homo sapiens, UniProt O15530, Q292A/Y288G).
T1 sequence (O15530 with tags, fused parts or gaps Y288G/Q292A): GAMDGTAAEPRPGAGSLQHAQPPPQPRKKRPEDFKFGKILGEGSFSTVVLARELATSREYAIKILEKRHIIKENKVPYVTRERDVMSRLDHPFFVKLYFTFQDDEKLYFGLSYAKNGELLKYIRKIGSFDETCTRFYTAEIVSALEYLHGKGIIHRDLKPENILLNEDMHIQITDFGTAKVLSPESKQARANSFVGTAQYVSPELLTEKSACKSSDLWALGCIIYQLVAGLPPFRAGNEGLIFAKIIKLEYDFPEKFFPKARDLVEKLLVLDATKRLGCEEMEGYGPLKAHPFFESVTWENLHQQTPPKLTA
Kind of experiment: Amide 1H/2H exchange and mass spectrometry.
Method: For local exchange analysis, the labeled proteins were digested with pepsin and the resulting polypeptides analyzed by tandem mass-spectrometry (LC-MS/MS) for their incorporation of deuterium atoms. The graphics represent the number of deuterium atoms incorporated into each polypeptide upon the stated incubation time in deuterated water. […] Over time, amide hydrogen atoms exchanged for deuteriums and the molecular weight of the protein increased. We repeated the ^1H/^2H exchange experiments at four different incubation times: 1, 5, 15 and 45 minutes. […] In the presence of peptide or small compounds, protein and ligand solution were pre-incubated on ice for 50 min before the mixture was diluted into labeling buffer. After the exchange reaction, samples were loaded on a pepsin column for one minute for digestion into peptides and samples quenched at each time point. They were then subjected to liquid chromatography for separation and analyzed by tandem mass-spectrometry (LC-MS/MS) for their incorporation of deuterium atoms. The entire plumbing system was immersed in an ice bath. 61 polypeptides were identified with overlapping regions, covering 80% of PDK1 sequence. As it is not possible to predict the cleavage sites of pepsin in the PDK1 sequence, it was necessary to identify the peptides generated by pepsin digestion for local-exchange analysis.

The target in experiment [2] is T2, His-PDK1 50-556 / biotin-PIFtide interaction (Homo sapiens, UniProt O15530).
T2 sequence (O15530 50-556): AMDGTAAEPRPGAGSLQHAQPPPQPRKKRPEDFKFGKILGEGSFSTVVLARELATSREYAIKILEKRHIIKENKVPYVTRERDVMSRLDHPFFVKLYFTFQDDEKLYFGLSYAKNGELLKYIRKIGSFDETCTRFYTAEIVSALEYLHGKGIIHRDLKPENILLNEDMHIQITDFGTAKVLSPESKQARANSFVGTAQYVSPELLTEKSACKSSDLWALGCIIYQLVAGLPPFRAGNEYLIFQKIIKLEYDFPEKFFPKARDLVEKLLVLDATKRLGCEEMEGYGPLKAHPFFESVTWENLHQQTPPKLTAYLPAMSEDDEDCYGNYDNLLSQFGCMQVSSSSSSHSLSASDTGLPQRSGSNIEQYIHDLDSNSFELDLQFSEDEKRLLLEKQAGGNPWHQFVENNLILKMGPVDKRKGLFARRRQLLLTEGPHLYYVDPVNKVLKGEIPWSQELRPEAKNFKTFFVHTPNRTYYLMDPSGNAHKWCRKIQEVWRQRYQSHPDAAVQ
Put plainly: alpha-screen displacement of the His-PDK1 biotin-PIFtide interaction. The class given is binding. The protocol: To study if low molecular weight compounds displaced the interaction, the compounds were incubated with the mix and the displacement of the His-PDK1 biotin-PIFtide interaction measured as a decrease in light emission.
In general terms: In Alpha technology, singlet oxygen from a donor bead excites a nearby acceptor bead.

A further experiment has as its target T3, PDK1 catalytic domain (Homo sapiens, UniProt O15530).
T3 construct: The catalytic domain (CD) of PDK1 50-359 and its mutants
T3 sequence (O15530 50-359): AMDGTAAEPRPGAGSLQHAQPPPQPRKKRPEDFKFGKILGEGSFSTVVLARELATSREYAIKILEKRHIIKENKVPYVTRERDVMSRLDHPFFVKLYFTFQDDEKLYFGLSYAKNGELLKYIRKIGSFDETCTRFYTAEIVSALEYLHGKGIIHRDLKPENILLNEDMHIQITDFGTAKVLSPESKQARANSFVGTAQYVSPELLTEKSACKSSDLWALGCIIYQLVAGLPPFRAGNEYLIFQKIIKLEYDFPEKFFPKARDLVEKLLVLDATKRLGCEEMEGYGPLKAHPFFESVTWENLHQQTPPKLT
Put plainly: TNP-ATP fluorescence probing of the ATP binding site conformation. The class given is biochemical. An excerpt: Probing the conformation of the ATP binding site in PDK1: The activation of PDK1 by HM-polypeptides and small compounds is due to a change in the conformation of the enzyme. We probed the conformation of the ATP binding site in PDK1 by scanning the steady-state fluorescence of TNP-ATP/PDK1, in the presence or absence of P-HM-polypeptides, PIFtide, or small molecular weight compounds. Data were obtained in a Varian Cary Eclipse spectrofluorometer (excitation λ=479 nm; emission scanning, λ=500-600 nm; excitation slit=10 nm; emission slit=10 nm) at a rate of 200 nm/min, with 150 datapoints/100 nm scanning and 0.3 s averaging time. The incubation was performed at 20° C. in a buffer containing 50 mM Tris pH 7.5, 0.1 mM EDTA, 187 mM NaCl, 40 μM TNP-ATP, 15 μM PDK1 catalytic domain, 1 mM DTT and 1% DMSO. In the absence of PDK1, TNP-ATP produced approximately 1.5 arbitrary units (a.u.) of fluorescence, and the inclusion of PDK1 increased its fluorescence intensity to approximately 3.3 a.u. […] In preliminary tests, inclusion of 2.5 mM MgCl2 in the assay mix produced similar results. Data for each condition are the average of 3 scans.

In experiment [3] the target is T4, PDK1 CD (50-359) [Thr226Trp] (human, UniProt O15530 50-359).
T4 construct: also called PDK1[Thr226Trp]; PDK1 Thr226Trp
T4 sequence: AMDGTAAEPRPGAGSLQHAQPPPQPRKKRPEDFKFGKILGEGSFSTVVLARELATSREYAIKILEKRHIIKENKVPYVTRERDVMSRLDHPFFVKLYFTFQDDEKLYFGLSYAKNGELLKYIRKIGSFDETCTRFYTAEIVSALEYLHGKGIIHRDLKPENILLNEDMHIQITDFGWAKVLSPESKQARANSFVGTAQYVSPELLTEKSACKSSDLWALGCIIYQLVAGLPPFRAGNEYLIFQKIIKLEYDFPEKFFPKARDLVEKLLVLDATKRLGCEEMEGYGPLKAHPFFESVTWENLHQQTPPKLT
Put plainly: SPR competition (BiaCore): PDK1 [Thr226Trp] pre-incubated with PIFtide, then injected over immobilised biotin-P-HM-S6K; PIFtide displaces PDK1 from biotin-P-HM-S6K. (Surface plasmon resonance follows binding to a sensor surface in real time, without labels.)

In experiment [4] the target is T5, PDK1 CD (50-359) [Phe224Trp] (human, UniProt O15530 50-359).
T5 construct: also called PDK1[Phe224Trp]; PDK1 Phe224Trp
T5 sequence: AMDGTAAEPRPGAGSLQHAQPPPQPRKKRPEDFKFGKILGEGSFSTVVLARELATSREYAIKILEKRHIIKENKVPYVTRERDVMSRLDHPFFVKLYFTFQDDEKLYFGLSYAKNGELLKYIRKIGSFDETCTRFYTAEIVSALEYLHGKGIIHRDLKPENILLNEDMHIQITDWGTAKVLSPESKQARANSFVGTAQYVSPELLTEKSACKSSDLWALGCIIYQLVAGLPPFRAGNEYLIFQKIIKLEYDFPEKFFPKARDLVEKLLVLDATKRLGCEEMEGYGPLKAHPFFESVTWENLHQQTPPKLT
Put plainly: SPR competition (BiaCore): PDK1 [Phe224Trp] pre-incubated with PIFtide, then injected over immobilised biotin-P-HM-S6K; PIFtide displaces PDK1 from biotin-P-HM-S6K.

A further experiment concerns the target T6, PDK1 CD (50-359) wt (human, UniProt O15530 51-360).
T6 construct: also called PDK1 50-359; PDK1 CD wt
T6 sequence: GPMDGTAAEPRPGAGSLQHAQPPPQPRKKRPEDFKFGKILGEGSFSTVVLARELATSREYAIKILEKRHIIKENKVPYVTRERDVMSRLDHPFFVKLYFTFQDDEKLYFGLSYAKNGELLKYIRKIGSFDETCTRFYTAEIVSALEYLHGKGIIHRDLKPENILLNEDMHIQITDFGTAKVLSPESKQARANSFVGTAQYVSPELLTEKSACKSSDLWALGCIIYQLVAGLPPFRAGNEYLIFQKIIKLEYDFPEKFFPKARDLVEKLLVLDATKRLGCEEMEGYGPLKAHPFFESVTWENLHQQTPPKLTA
Kind of experiment: SPR competition (BiaCore): PDK1 CD wt pre-incubated with PIFtide, then injected over immobilised biotin-P-HM-S6K; PIFtide displaces PDK1 from biotin-P-HM-S6K.

Take `O=C(O)/C=C(/CCc1ccc(Br)cc1F)c1ccccc1` [PS08]: the “decreased 2H incorporation, peptide 108-121” value in experiment [1] is reported as 1 ^2H. In addition, in experiment [1] (first time point), the “2H less incorporated, peptide 108-134” value is listed as 4 ^2H and the “2H less incorporated, peptide 218-247” value is reported as 1.5 ^2H. For the same molecule, the “2H less incorporated, peptide 108-134” value in experiment [1] (following time points) is reported as 2 ^2H. In addition, in experiment [1] (time points 15 and 45), the “2H less incorporated, peptide 146-155” value was 1 ^2H. Besides, the “displacement of the binding of PIFtide to PDK1” value in experiment [2] is “could be displaced”. Further, on PDK1 catalytic domain (40 μM TNP-ATP, 15 μM PDK1 catalytic domain), the “effect on TNP-ATP fluorescence intensity in the presence of PDK1” value is reported as “concentration dependent decrease; also recorded: concentration-dependent decrease”. The “maximum fluorescence intensity of TNP-ATP/PDK1” value on PDK1 catalytic domain (167 μM compound, % of maximal TNP-ATP fluorescence with 15 μM PDK1 CD) is 60%.

B1: PIFtide (peptide)
peptide: REPRILSEEEQEMFRDFDYIADWC
notes: also called HM-polypeptide PIFtide
As to B1, the binding result (in experiment [3]; in experiment [4]; in the experiment with PDK1 CD (50-359) wt) was “binds” throughout.
